Test results reported in patent publication US12692283B2, “Lignan derivative, preparation method therefor and use thereof” (SHANGHAI INSTITUTE OF MATERIA MEDICA, CHINESE ACADEMY OF …, priority 2021, dated 2026).

How the values were obtained:
MLO-Y4 senescent cells = assay: Viability of doxorubicin-induced senescent MLO-Y4 mouse osteoid cells (MTT); assay type: cell-based; details: MLO-Y4, 72 h, senescent cells induced by 100 nM doxorubicin, co-incubation 3 days, read-out: MOL-Y4 IC50
Description: MOL-Y4 cells were cultured in MEM culture medium (supplemented with 10% FBS, 1% PS).
(§1) The experimental steps for testing the effects of compounds on the viability of MOL-Y4 senescent cells were as follows. MOL-Y4 cells were seeded in a 96-well plate at 20,000 cells/well. After overnight, 100 nM doxorubicin was added to each well and incubated for 3 days. Then the medium was replaced with normal culture medium. After 1 day of incubation, the culture medium was replaced with 100 nM doxorubicin and incubated for 3 days to successfully induce senescence of MOL-Y4 cells. Subsequently, different concentrations of compounds were added (40 μM was the highest concentration, and diluted according to ¼, a total of 7 concentrations), and after co-incubation for 3 days, 10 μl of MTT (5 mg/ml) was added to each well and incubated for 4 hours. DMSO (150 μl) was added to each well after aspirating the culture medium.

WI-38 senescent cells = assay: Viability of doxorubicin-induced senescent WI-38 human fibroblasts (MTT); assay type: cell-based; details: WI-38, 72 h, senescent cells induced by 200 nM doxorubicin, co-incubation 3 days
Description: WI-38 cells were cultured in DMEM (high glucose, 4.5 g/L) culture medium (supplemented with 10% FBS, 1% PS).
as §1, with “experimental testing” for “experimental”, “for” for “for testing”, “WI-38” for “MOL-Y4”, “200” for “100”

[1] = Acta Pharmacologica Sinica, 2018, 39, 787-801, cited from earlier work
[2] = test system: mitochondrial respiratory chain complex I; details: ACS Chemical Biology, 2013, 8 (1), 257-267; cited from earlier work
NB-1 cells = assay: Viability of human neuroblastoma cells NB-1 (CCK8); assay type: cell-based; details: NB1, 72 h, incubation 3 days
Description: (§2) NB-1 cells, suspension cells, were cultured in RPIM1640+10% FBS+1% PS culture medium at 37° C. and 5% CO2. NB-1 was seeded in a 96-well plate at 20,000 cells/well, and different concentrations of compounds were added (40 μM was the highest concentration, diluted according to ¼, a total of 7 concentrations). After incubation for 3 days, 10 μL CCK8 reagent was added to each well. After incubation for 2 hours, OD450 was detected by a microplate reader, then the effect of the compound on cell viability, IC50 value was calculated.

OCI-AML3 cells = assay: Viability of human acute myeloid leukemia cells OCI-AML3 (CCK8); assay type: cell-based; details: OCI-AML-3, 72 h, incubation 3 days
Description: as §2, with “OCI-AML3” for “NB-1”, “μl” for “μL”

[3] = Oral pharmacokinetics of Compound A4-1a and Arctigenin in ICR mice (plasma, liver, colon); assay type: in vivo, mouse; details: oral 30 mg/kg, 1-8 h
Description: Arctigenin and Compound A4-1a were administered orally at 30 mg/kg to overnight-fasted ICR mice (male, n=3/time point), respectively. The mice were fed 2 hours after administration. Samples were collected before administration and 1 h, 2 h, 4 h, and 8 h after administration. Blood was collected in centrifuge tubes pretreated with heparin sodium and bis(4-nitrophenyl)phosphate (BNPP). After centrifugation at 11,000 rpm for 5 min at 4° C., plasma was obtained and stored at −80° C. Next, 100 […] of plasma sample, precipitated, vortexed for 1 min, and centrifuged (11,000 rpm) for 5 min. A mixture of 20 […] of methanol/acetonitrile (1:1, v/v) was taken to analyze the concentration of the compound by LC-MS/MS. Liver tissue was stored at −80° C. until analysis. After removal of contents, the colon was quickly washed with cold saline containing BNPP and stored at −80° C. until analysis. Analysis method: After 10 times the weight of MeOH/ACN (1:1, v/v) was added to the tissue samples, the homogenate was obtained by homogenizing for 120 s with a homogenizer at 50 Hz and then centrifuged (11000 rpm) for 5 min, and the supernatant was collected. 20 μL of the supernatant was redissolved in 20 μL of ACN/H2O (1:1, v/v), and the compound concentration was analyzed in LC-MS/MS.

[4] = molecular target: Mitochondrial Respiratory Complex I (Complex I) (Mus musculus, UniProt P03888+Q91WD5+Q9DC70); assay: Inhibitory activity on mitochondrial respiratory Complex I (NADH activity, mitochondria from mouse heart tissue); assay type: biochemical; details: NADH 50 μM, read at 340 nm, 30 μg mouse heart mitochondrial protein
Description: Mitochondria were extracted from mouse heart tissue. […] of solution A (0.22M mannitol, 0.07M sucrose, 0.02M HEPES, 2 mM Tris-HCl, 1 mM EDTA, pH 7.2, 0.4% BSA) was added to the heart tissue. The tissue was cut up and then washed three times with solution A to remove blood and connective tissue, then homogenized using a glass homogenizer about 30 times. The suspension was centrifuged at 3000 g for 1.5 min, and the supernatant was retained. The precipitate was resuspended in solution A with protease inhibitor and re-centrifuged to collect the supernatant. The supernatants from two collections were mixed for the next step. The supernatant was centrifuged at 17500 g for 2.5 min and the supernatant was discarded. The precipitate was resuspended in solution A with protease inhibitor, centrifuged at 17500 g for 4.5 min, resuspended in solution B (2.5 mM potassium phosphate, 5 mM MgCl2 pH 7.2) and repeatedly frozen and thawed to obtain a solution of the mitochondrial complex for subsequent assay. To measure the NADH activity of Complex I, 2.5 mL of reaction solution containing 50 mM HEPES, 5 mM MgCl2 pH 7.5 and 30 μg of mitochondrial protein from the above process was prepared. The compound to be detected was added and equilibrated for 5 minutes, and then was dispensed into each well. Finally, NADH (50 μM) was quickly added, and data at […] were read every 30 sec for a total of 15 minutes. Calculation: the NADH reaction rates for different compounds were calculated, then the inhibition rate (compound reaction rate/control reaction rate×100) was calculated, and the IC50 value of the compound was finally calculated.

Mitochondrial Respiratory Complex I (Complex I), sequence (P03888 whole entry): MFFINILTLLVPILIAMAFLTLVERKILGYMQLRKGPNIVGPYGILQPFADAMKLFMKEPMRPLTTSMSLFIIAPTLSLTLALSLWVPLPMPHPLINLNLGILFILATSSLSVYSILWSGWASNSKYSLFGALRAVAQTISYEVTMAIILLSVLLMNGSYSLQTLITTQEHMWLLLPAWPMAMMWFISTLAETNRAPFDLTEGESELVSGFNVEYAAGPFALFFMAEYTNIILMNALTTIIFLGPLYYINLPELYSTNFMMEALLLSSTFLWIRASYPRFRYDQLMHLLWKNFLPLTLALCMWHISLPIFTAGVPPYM
Mitochondrial Respiratory Complex I (Complex I), sequence (Q91WD5 34-463): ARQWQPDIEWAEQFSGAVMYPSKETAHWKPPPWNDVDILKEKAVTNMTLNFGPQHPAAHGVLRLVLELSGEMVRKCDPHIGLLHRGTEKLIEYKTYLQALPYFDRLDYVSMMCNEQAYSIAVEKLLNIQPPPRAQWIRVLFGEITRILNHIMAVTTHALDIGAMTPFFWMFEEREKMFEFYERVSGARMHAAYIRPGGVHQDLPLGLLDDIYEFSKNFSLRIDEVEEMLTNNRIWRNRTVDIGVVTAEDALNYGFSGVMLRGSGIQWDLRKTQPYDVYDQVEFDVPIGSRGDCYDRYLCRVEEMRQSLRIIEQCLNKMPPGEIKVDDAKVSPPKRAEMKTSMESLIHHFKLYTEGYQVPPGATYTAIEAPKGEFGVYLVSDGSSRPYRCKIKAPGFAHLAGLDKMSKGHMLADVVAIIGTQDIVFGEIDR
Mitochondrial Respiratory Complex I (Complex I), sequence (Q9DC70 36-224): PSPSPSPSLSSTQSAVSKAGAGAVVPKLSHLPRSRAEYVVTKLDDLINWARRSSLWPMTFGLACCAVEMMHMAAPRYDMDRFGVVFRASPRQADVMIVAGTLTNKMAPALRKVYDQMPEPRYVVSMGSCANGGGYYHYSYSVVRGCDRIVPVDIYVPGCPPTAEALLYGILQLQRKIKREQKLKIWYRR

IC50 (NB-1 cells)	IC50 (OCI-AML3 cells)	SMILES	IC50 [4]	other results
		CC1(C)CCC(c2ccc(Cl)cc2)=C(CN2CCN(c3ccc(C(=O)NS(=O)(=O)c4ccc(N[C@H](CCN5CCOCC5)CSc5ccccc5)c(S(=O)(=O)C(F)(F)F)c4)cc3)CC2)C1 [ABT263, reference compound]		IC50 (MLO-Y4 senescent cells): 0.235 µM; IC50 (WI-38 senescent cells): 5.6 µM
2.38 µM	0.589 µM	COc1cc(C[C@H]2C(=O)OC[C@@H]2Cc2ccc(OC)c(OC)c2)ccc1O [Arctigenin]		metabolism after oral administration [1]: easily metabolized after oral administration; bioavailability ([1]; oral): low bioavailability; pharmacokinetic properties ([1]; oral): poor pharmacokinetic properties; inhibition of mitochondrial respiratory chain complex I [2]: moderately potent and selective inhibitor
0.424 µM	0.081 µM	COc1cc(C[C@@]2(C)C(=O)OC[C@@H]2Cc2ccc(OC)c(OC)c2)ccc1O [Compound A4-1a, (3R,4R)-4-(3,4-dimethoxybenzyl)-3-(4-hydroxy-3-methoxybenzyl)-3-methyldihydrofuran-2 (3H)-one]	0.507 µM	IC50 (MLO-Y4 senescent cells): 0.04 µM; drug concentrations in plasma and tissues compared with Arctigenin [3]: significantly higher drug concentrations in plasma and tissues; IC50 (WI-38 senescent cells): 0.038 µM
		COc1cc(C[C@]2(F)C(=O)OC[C@@H]2Cc2ccc(OC)c(OC)c2)ccc1O [Compound A4-1b]	1.27 µM	
		COc1cc(C[C@@]2(F)C(=O)OC[C@@H]2Cc2ccc(OC)c(OC)c2)ccc1O [Compound A4-1c]	0.185 µM	
0.546 µM	0.169 µM	COc1cc(C[C@@]2(Cl)C(=O)OC[C@@H]2Cc2ccc(OC)c(OC)c2)ccc1O [Compound A4-1d]		
		COc1cc(C[C@@]2(CCl)C(=O)OC[C@@H]2Cc2ccc(OC)c(OC)c2)ccc1O [Compound A4-1e]	0.473 µM	IC50 (MLO-Y4 senescent cells): 0.15 µM; IC50 (WI-38 senescent cells): 1 µM
0.433 µM	0.091 µM	COc1cc(C[C@@]2(CO)C(=O)OC[C@@H]2Cc2ccc(OC)c(OC)c2)ccc1O [Compound A4-1i]		
		COc1ccc(C[C@H]2COC(=O)[C@@H]2Cc2ccc(O)c(OCCc3ccccc3)c2)cc1OC [Compound B9-1a, (3R,4R)-4-(3,4-dimethoxybenzyl)-3-(4-hydroxy-3-phenylethoxybenzyl)dihydrofuran-2 (3H)-one]	0.054 µM	
0.175 µM	0.274 µM	COc1ccc(C[C@H]2COC(=O)[C@@H]2Cc2ccc(O)c(OCC(F)(F)F)c2)cc1OC [Compound B9-1e]		
		COc1ccc(C[C@H]2COC(=O)[C@@H]2Cc2ccc(O)c(OCc3ccccc3)c2)cc1OC [Compound B9-1p]	0.465 µM	
		COc1ccc(C[C@H]2COC(=O)[C@@H]2Cc2ccc(O)c(OCCc3ccc(C(F)(F)F)cc3)c2)cc1OC [Compound B9-1q]	0.064 µM	
		COc1ccc(C[C@H]2COC(=O)[C@@H]2Cc2ccc(O)c(OCCn3cccc3)c2)cc1OC [Compound B9-1r]	0.316 µM	
		COc1ccc(C[C@H]2COC(=O)[C@@H]2Cc2ccc(O)c(OCC(O)c3ccccc3)c2)cc1OC (stereo partly shown) [Compound B9-1u]	0.564 µM	
		COc1ccc(C[C@H]2COC(=O)[C@@H]2Cc2ccc(O)c(OCCCc3ccccc3)c2)cc1OC [Compound B9-1v]	0.034 µM	
		COc1ccc(C[C@H]2COC(=O)[C@@H]2Cc2ccc(O)c(OCC(O)c3ccc(C(F)(F)F)cc3)c2)cc1OC (stereo partly shown) [Compound B9-1x]	0.65 µM	
		COc1ccc(C[C@H]2COC(=O)[C@]2(C)Cc2ccc(O)c(OCCc3ccccc3)c2)cc1OC [Compound B11-1a, (3R,4R)-4-(3,4-dimethoxybenzyl)-3-(4-hydroxy-3-phenylethoxybenzyl)-3-methyldihydrofuran-2 (3H)-one]	0.646 µM	
0.626 µM	0.047 µM	COc1ccc(C[C@H]2COC(=O)[C@]2(C)Cc2ccc(O)c(OCC(F)(F)F)c2)cc1OC [Compound B11-1b]	0.668 µM	
0.446 µM	0.289 µM	COc1ccc(C[C@H]2COC(=O)[C@]2(C)Cc2ccc(O)c(OCC(O)c3ccc(C(F)(F)F)cc3)c2)cc1OC (stereo partly shown) [Compound B11-1c]		
		COc1cc(C[C@H]2COC(=O)[C@]2(C)Cc2ccc(O)c(OC)c2)ccc1O [Compound B11-1e]	1.37 µM	
		COc1cc(C[C@@]2(C)C(=O)OC[C@@H]2Cc2ccc3c(c2)OCO3)ccc1O [Compound B11-1f]	0.42 µM	
		COc1ccc(C[C@H]2COC(=O)[C@]2(C)Cc2ccc(OC)c(OC)c2)cc1OC [Compound B11-1h]	13.2 µM	

SMILES	IC50 (NB-1 cells)	IC50 (OCI-AML3 cells)	IC50 [4]	other results
[2H]C([2H])([2H])Oc1cc(C[C@H]2C(=O)OC[C@@H]2Cc2ccc(OC)c(OC)c2)ccc1O [Compound B9-1d]		0.602 µM	0.696 µM	
